Test results reported in patent US20150216168A1, “USE OF SUBSTITUTED 2-AMIDOBENZIMIDAZOLES, 2-AMIDOBENZOXAZOLES AND 2-AMIDOBENZOTHIAZOLES OR SALTS THEREOF AS ACTIVE SUBSTANCES AGAINST ABIOTIC PLANT STRESS” (BAYER CROPSCIENCE AG, priority 2012, published 2015).

What was measured:
Hordeum vulgare = assay: Drought stress test on greenhouse crop plants, spray application, barley; assay type: in vivo; conditions: 500 g/ha
Procedure: (§1) Seeds of monocotyledonous and dicotyledonous crop plants were laid out in sandy loam in wood-fiber pots, covered with soil or sand and cultivated in a greenhouse under good growth conditions. The test plants were treated at the early leaf stage (BBCH10-BBCH13). To assure uniform water supply before commencement of stress, the potted plants were supplied with water by dam irrigation prior to substance application. The compounds according to the invention, formulated in the form of wettable powders (WP), were sprayed onto the green parts of the plants as an aqueous suspension at an equivalent water application rate of 600 I/ha with addition of 0.2% wetting agent (e.g. agrotin). Substance application was followed immediately by stress treatment of the plants. For this purpose, the pots were transferred into plastic inserts in order to prevent them from subsequently drying out too quickly. Drought stress was induced by gradual drying out under the following conditions:
(§2) “Day”: 14 hours with illumination at 26° C. […]
(§3) After the recovery phase had ended, the intensities of damage were analyzed in visual comparison to untreated, unstressed controls for the same age. The intensity of damage was first recorded as a percentage (100%=plants have died, 0%=like control plants). […]
(§4) In each trial, 3 pots per crop and dosage were treated and evaluated; the resulting efficacies are thus averages. […]

Zea mays = assay: Drought stress test on greenhouse crop plants, spray application, corn; assay type: in vivo; conditions: 250 g/ha
Procedure: as §1, §2, §3, §4

For NC(=O)c1cccc2oc(-c3ccc(Cl)cc3Cl)nc12 [B1-18, 2-(2,4-Dichlorophenyl)-1,3-benzoxazole-4-carboxamide], the “EF (HORVS): efficacy, percentage reduction in the intensity of damage” value (Hordeum vulgare) was over 5% and the “EF (ZEAMX): efficacy, percentage reduction in the intensity of damage” value (Zea mays) was over 5%.
